One series concerns Scn1A mice. Further details: method as in PMID 34384142. The conditions noted are these: cited from earlier work.
The nature of series [1]: Pharmacokinetic profile: cannabinoids in rat serum by LC-MS/MS, non-compartmental analysis. The conditions noted are these: for Tmax / AUC Inf / AUC Last / Cl / Cmax / T1/2 / Vd: rat serum; for amount identified and quantitated in serum samples: rats given doses of 5, 50, 300 and 600 mg/kg, LC-MS. The procedure:
The pharmacokinetic profile of the EU-GMP-certified Cannabis sativa L. with 15.6% THC and <1% CBD was assessed using 4 dose levels, 5, 50, 300, and 600 mg/kg. Dose levels were chosen in accordance with OECD 417 guidelines being lower than 1000 mg/kg but still high enough to allow for the identification and measurement of natural cannabinoids in the serum. Each dose level group consisted of 6 female Sprague-Dawley rats (8–12 weeks, 200–300 g) housed, cared and treated in the same conditions as the animals involved in the acute toxicity study. After gavage delivery of the compound, blood samples were collected, through a cardiac puncture, at 15 min, 30 min, 1 h, 2 h, 3 h, 4 h, 8 h, 12 h, 24 h, 48 h, and 72 h, respectively. The collected blood samples were then allowed to clot for 30 min at room temperature and centrifuged at 2000× g for 15 min at 4 °C. The separated serum samples were transferred immediately in microcentrifuge tubes and stored at −20 °C until THC and THCA quantification using LC-MS analysis were performed.
A method for simultaneous extraction and LC-MS/MS quantitation of 11 cannabinoids was developed and validated for the present study. Cannabinoid extraction from rat serum was performed according to the method described by Wakshlag et al., with modifications. Rat serum (40 μL) was mixed with 10 μL water: methanol (1:1) and 10 μL internal standard (200 ng/mL of CBD-d3) diluted in water: methanol (1:1). Proteins were precipitated by adding 80 μL ice-cold acetonitrile to each sample followed by vortex 2 min at 6 °C, 1000 rpm and centrifugation at 4000 rpm for 10 min at 4 °C. The supernatant (100 μL) was mixed with ultrapure water (100 μL) in another 1.5 mL microcentrifuge tube and centrifuged again at 4000 rpm for 10 min at 4 °C. The supernatant (100 μL) was transferred to another 1.5 mL microcentrifuge tube and placed in ice until LCMS analysis. Ten μL of the sample were injected into a Phenomenex Kinetex C18 (100 × 4.6 mm, 2.6 μm, 100 Å) HPLC separation column connected in the column compartment of an Agilent 1200 HPLC coupled to an Agilent 6410 electrospray-triple quadrupole mass spectrometer. A 10:1 post-column splitter was used. The column was equilibrated with mobile phase A (0.1% formic acid in water) and mobile phase B (0.1% formic acid in acetonitrile) at 50% B for 1 min. A linear gradient from 50% B to 90% B for 3 min was used and was held constant at 90% B for 6 min, then decreased to 50% B in 1 min and maintained at 50% B for 5 min. The flow rate was […], and the column temperature was 24 °C.
The mass spectrometer was operated in positive mode. The source parameters were a capillary voltage of 4000 V, a gas of temperature 325 °C, a gas flow of 8 L/min, and a nebulizer of 35 psi. The parameters of the mass spectrometer for each time and scan segment and the retention time for each compound are presented in Table 3.
The qualitative analysis of the chromatograms and mass spectra was performed by Agilent MassHunter Workstation Software Qualitative Analysis v.B.01.02 and the quantitative analysis by Agilent MassHunter Workstation Software Quantitative Analysis v.B.01.03. Linear calibration curves were obtained for all 11 cannabinoids using the relative response (peak area of each cannabinoid/peak area of internal standard) and the relative concentration (concentration of each cannabinoid/concentration of internal standard). A linear 7-point calibration curve with 1/×2 weighing and a concentration range of 5–1000 ng/mL in rat serum was employed for the quantitation of the serum samples collected in the present study. The analysis of carryover was performed by LC/MS analysis of a blank sample extracted from normal rat serum after LC/MS analysis of a sample extracted from rat serum fortified with 1000 ng/mL natural cannabinoids.

Series [2] deals with seizure models with electric shocks. Details: method as in PMID 34384142. To be noted: doses of 10 and 30 mg/kg; cited from earlier work.
Series [3] deals with CB2. Details: method as in PMID 28861508. The conditions noted are these: relative to THC; cited from earlier work.
The test system of series [4] is CB1. Details: method as in PMID 28861508. The conditions noted are these: suggests a weak agonist activity; cited from earlier work.
The test system of series [5] is CB2. Details: method as in PMID 28861508. The conditions noted are these: cited from earlier work.
Series [6] deals with CB1. Details: method as in PMID 28861508. To be noted: relative to THC; cited from earlier work.
[7] abbreviates: oral 5 mg/kg Cannabixir Medium Flos (0.78 mg Δ9-THCA-A + Δ9-THC).
The mark [8] stands for this setting: oral 50 mg/kg Cannabixir Medium Flos (7.8 mg Δ9-THCA-A + Δ9-THC).
Where [9] appears, read: oral 300 mg/kg Cannabixir Medium Flos (46.8 mg Δ9-THCA-A + Δ9-THC).
The mark [10] stands for this setting: oral 600 mg/kg Cannabixir Medium Flos (93.6 mg Δ9-THCA-A + Δ9-THC).

For orientation: Tmax means the time at which the peak concentration occurs. By Cmax is commonly meant the highest concentration seen after dosing.

Regarding `C=C(C)[C@@H]1CCC(C)=C[C@H]1c1c(O)cc(CCC)c(C(=O)O)c1O` [CBDVA, cannabidivarinic acid], in the series with Scn1A mice, the frequency of convulsions entry is “increase frequency of convulsions”.

Turning to `CCCCCc1cc(O)c2c(c1)OC(C)(C)[C@@H]1CCC(C)=C[C@@H]21` [Δ9-THC, Δ9-tetrahydrocannabinol], the time of peak concentration (Tmax) in series [1] (setting [7]) was found to be 0 h. Besides, the time of peak concentration (Tmax) in series [1] (setting [8]) came out at 0 h. In series [1] (setting [9]), the “AUC Inf” value is on record as “BQL”, the “AUC Last” value is “BQL”, the Cl result is “BQL” and the maximum concentration (Cmax) result is given as “BQL”. In addition, in series [1] (setting [9]), the T1/2 result is “BQL”, the Tmax entry is reported as “BQL” and the Vd entry was “BQL”. In series [1] (setting [10]), the “AUC Inf” value was found to be 287.2334 ng·h/mL, the “AUC Last” value came out at 284.342 ng·h/mL, the Cl was 5431.12 mL/min/kg and the Cmax is on record as 34.916 ng/mL. In addition, in series [1] (setting [10]), the T1/2 is listed as 7.080 h, the Tmax is recorded as 0.25 h and the Vd is reported as 3328.818 L/kg. Besides, the “amount identified and quantitated in serum samples” value (from here on “amount identified and quantitated”) in series [1] is listed as “low amounts”.

As for `CCCc1cc2c(c(O)c1C(=O)O)C=CC(C)(CCC=C(C)C)O2` (stereo not drawn) [CBCVA, cannabichromevarinic acid], in the series with Scn1A mice, the frequency of convulsions result is given as “increase frequency of convulsions”.

Regarding `CCCCCc1cc(O)c(C/C=C(\C)CCC=C(C)C)c(O)c1C(=O)O` [CBGA, cannabigerolic acid], in series [1], the “amount identified and quantitated” value is on record as “high amounts”. Besides, the frequency of convulsions entry in the series with Scn1A mice was “increase frequency of convulsions”. Also, the “effect on seizure models with electric shocks” value in series [2] is reported as “pro-convulsive”.

On to `CCCCCc1cc(O)c(C/C=C(\C)CCC=C(C)C)c(O)c1` [CBG, Cannabigerol], for which the frequency of convulsions result in the series with Scn1A mice is listed as “increase frequency of convulsions”.

On to `CCCCCc1cc2c(c(O)c1C(=O)O)C1C=C(C)CCC1C(C)(C)O2` (stereo not drawn) [Δ9-THCA-A, Δ9-tetrahydrocannabinolic acid], for which the “binding for CB2, times smaller than THC” value in the series on CB2 [3] is no less than 125 times. Further, the “efficacy at CB1 (AMPc)” value in the series with CB1 [4] is listed as “slightly inhibited AMPc”. Moreover, the “efficacy for CB2” value in the series with CB2 [5] was “no efficacy”. In addition, in series [1] (setting [7]), the “AUC Inf” value was 260.802 ng·h/mL, the “AUC Last” value is 197.236 ng·h/mL, the maximum concentration (Cmax) was 42.425 ng/mL and the T1/2 was 5.3374 h. Moreover, in series [1] (setting [7]), the time of peak concentration (Tmax) worked out at 3 h and the Vd came out at 23.0298 L/kg. In series [1] (setting [8]), the “AUC Inf” value amounted to 3172.8488 ng·h/mL, the “AUC Last” value came out at 3163.1937 ng·h/mL, the Cl is 40.972 mL/min/kg and the Cmax came to 404.16 ng/mL. Further, in series [1] (setting [8]), the T1/2 turned out to be 5.4189 h, the Tmax came to 3 h and the Vd was 19.2193 L/kg. For the same compound, in series [1] (setting [9]), the “AUC Inf” value is 13,544.792 h*ng/mL, the “AUC Last” value is recorded as 13,323.57 h*ng/mL, the Cl is 57.587 mL/min/kg and the maximum concentration (Cmax) worked out at 2787.617 ng/mL. Moreover, in series [1] (setting [9]), the T1/2 is 10.291 h, the Tmax was determined as 0.5 h and the Vd came out at 51.298 L/kg. For the same compound, in series [1] (setting [10]), the “AUC Inf” value was 43,261.689 h*ng/mL, the “AUC Last” value is listed as 40,371.48 h*ng/mL, the Cl was 36.058 mL/min/kg and the highest concentration (Cmax) is recorded as 10,563.4 ng/mL. Besides, in series [1] (setting [10]), the T1/2 was 10.988 h, the Tmax came out at 0.25 h and the Vd is listed as 34.298 L/kg. For the same compound, the “amount identified and quantitated” value in series [1] is reported as “high amounts”. Also, the “binding for CB1, times smaller than that of THC” value with CB1 [6] is listed as “at least 62 times”.

On to `C=C(C)[C@@H]1CCC(C)=C[C@H]1c1c(O)cc(CCCCC)c(C(=O)O)c1O` [CBDA, cannabidiolic acid], for which the “amount identified and quantitated” value in series [1] is listed as “low amounts”.

For `CCCCCc1cc2c(c(O)c1C(=O)O)C=CC(C)(CCC=C(C)C)O2` (stereo not drawn) [CBCA, cannabichromenic acid], the “amount identified and quantitated” value in series [1] is on record as “low amounts”.

The record behind these values is publication PMC10223347, “Acute Toxicity and Pharmacokinetic Profile of an EU-GMP-Certified Cannabis sativa L. in Rodents” (Pharmaceuticals, 2023).
